This note sets out measurements from patent US12686664B2, “SOCE inhibitors and therapeutic uses thereof” (Institut National de la Santé et de la Recherche Médicale …, priority 2020, dated 2026).

This assay deals with store-operated Ca^2+ entry in PLP-B lymphocytes. As to the kind of experiment: Store-operated Ca2+ entry after thapsigargin depletion of ER Ca2+ stores in PLP-B lymphocytes. Type of assay: cell-based. The conditions noted are these: for IC50: SOCE in PLP-B lymphocytes, average of three assays, ±0.5 μM. How it is done: The effects of the molecules developed were tested on PLP-B lymphocytes. Store-operated Ca^2+ entry was induced by depletion of Endoplasmic Reticulum Ca^2+ stores (ER Ca^2+ stores) with thapsigargin (Tg) in a Ca^2+-free medium and measured following the addition of 1.8 mM of CaCl2) in the extracellular medium. The results are compared to the results obtained for known SOCE inhibitors SKF-96365, GSK-7975A, Synta 66.

The mark [1] stands for this setting: Lymphocyte, PLP-B lymphocytes, % of inhibition (−) or activation, DMSO control 100%, read-out: Effect on amplitude of SOCE Peak.
Where [2] appears, read: Lymphocyte, 1 μM, PLP-B lymphocytes, % of inhibition (−) or activation, DMSO control 100%, read-out: Effect on amplitude of SOCE Peak.
[3] abbreviates: Lymphocyte, 10 μM, PLP-B lymphocytes, % of inhibition (−) or activation, DMSO control 100%, read-out: Effect on amplitude of SOCE Peak.
The mark [4] stands for this setting: Lymphocyte, 10 μM, thapsigargin (Tg) peak, PLP-B lymphocytes, % of inhibition (−) or activation, read-out: Effect on amplitude of Tg Peak.
Where [5] appears, read: Lymphocyte, 50 μM, PLP-B lymphocytes, % of inhibition (−) or activation, DMSO control 100%, read-out: Effect on amplitude of SOCE Peak.
Where [6] appears, read: Lymphocyte, 50 μM, thapsigargin (Tg) peak, PLP-B lymphocytes, % of inhibition (−) or activation, read-out: Effect on amplitude of Tg Peak.
[7] abbreviates: Lymphocyte, 100 μM, PLP-B lymphocytes, % of inhibition (−) or activation, DMSO control 100%, read-out: Effect on amplitude of SOCE Peak.
Setting [8] is: Lymphocyte, 100 μM, thapsigargin (Tg) peak, PLP-B lymphocytes, % of inhibition (−) or activation, read-out: Effect on amplitude of Tg Peak.
Setting [9] is: 100 μM, PLP-B lymphocytes, % of inhibition (−) or activation, DMSO control 100%.

One may read the IC50 as the concentration that inhibits the measured activity by half.

Structures can show the parent of a compound that is named as a salt. Where two headings read alike, the source gives them in different places.

Regarding `Fc1ccc2c(c1)ncn2CCc1ccc(OCCc2ccc(OC3CCCCO3)cc2)cc1` (centres unmarked) [11αc, 5-Fluoro-1-(4-(4-((tetrahydro-2H-pyran-2-yl)oxy)phenethoxy)phenethyl)-1H-benzo[d]imidazole], the inhibition at 0.1 µM runs as follows: under setting [1], -67%; (Lymphocyte, thapsigargin (Tg) peak, PLP-B lymphocytes, % of inhibition (−) or activation, read-out: Effect on amplitude of Tg Peak) -16%. Moreover, the inhibition at 1 µM by setting is: under setting [2], -26%; (Lymphocyte, 1 μM, thapsigargin (Tg) peak, PLP-B lymphocytes, % of inhibition (−) or activation, read-out: Effect on amplitude of Tg Peak) -4%. Also, the inhibition at 10 µM runs as follows: under setting [3], 31%; under setting [4], 10%. Also, the inhibition at 50 µM is 54% under setting [5] and 12% under setting [6]. The inhibition at 100 µM under setting [7] was determined as 35% and the inhibition at 100 µM under setting [8] is -3%. Moreover, for the setting “Lymphocyte”, the IC50 is 1.6 µM.
Take `c1ccc2c(c1)cnn2CCc1ccc(OC2CCCCO2)cc1` (centres unmarked) [11αe, 1-(4-((Tetrahydro-2H-pyran-2-yl)oxy)phenethyl)-1H-indazole]: under setting [1], the inhibition at 0.1 µM is 23%. In addition, the inhibition at 1 µM under setting [2] amounted to 20%. Moreover, the inhibition at 10 µM reads like this: under setting [3], 33%; under setting [4], 8%. Further, the inhibition at 50 µM came to 54% under setting [5] and 9% under setting [6]. Also, the inhibition at 100 µM is, setting by setting: under setting [7], 88%; under setting [8], 20%. Further, the IC50 (Lymphocyte) came out at 40 µM.
On to `c1ncn(CCc2ccc(OC3CCCCO3)cc2)n1` (centres unmarked) [11βa, 1-(4-((Tetrahydro-2H-pyran-2-yl)oxy)phenethyl)-1H-1,2,4-triazole], for which the inhibition at 10 µM worked out at 32% under setting [3] and 20% under setting [4]. Further, the inhibition at 50 µM runs as follows: under setting [5], 31%; under setting [6], 17%. The inhibition at 100 µM under setting [7] was determined as 16% and the inhibition at 100 µM under setting [8] is 3%.
In the case of `Oc1ccc(CCn2cnc3ccccc32)cc1` [12αa, 1-(4-Hydroxyphenylethyl)-1H-benzo[d]imidazol hydrochloride], the inhibition at 10 µM under setting [3] was -2.2% and the inhibition at 10 µM under setting [4] was -2.7%. For the same compound, the inhibition at 50 µM is, setting by setting: under setting [5], 0.9%; under setting [6], -4.3%. Besides, the inhibition at 100 µM by setting is: under setting [7], -2.5%; under setting [8], -7.4%.
`Oc1ccc(CCOc2ccc(CCn3cnc4ccccc43)cc2)cc1` [12αb, 1-(4-(4-Hydroxyphenethoxy)phenethyl)-1H-benzo[d]imidazol hydrochloride]: the inhibition at 10 µM was -25% under setting [3] and -7% under setting [4]. Besides, the inhibition at 50 µM is -1% under setting [5] and -4% under setting [6]. Further, the inhibition at 100 µM under setting [7] came to 3%. The percent change in peak amplitude vs DMSO control (negative = inhibition, positive = activation) at 100 µM under setting [8] amounted to 0%.
For the compound `Oc1ccc(CCOc2ccc(CCn3cnc4cc(F)ccc43)cc2)cc1` [12αc, 5-Fluoro-1-(4-(4-hydroxyphenethoxy)phenethyl)-1H-benzo[d]imidazol hydrochloride], the inhibition at 10 µM reads like this: under setting [3], -20%; under setting [4], -11%. Also, the inhibition at 50 µM under setting [5] was -3% and the inhibition at 50 µM under setting [6] was -2%. The inhibition at 100 µM is -1% under setting [7] and -5% under setting [8].
`Oc1ccc(CCn2cnc3cc(F)ccc32)cc1` [12αd, 5-Fluoro-1-(4-hydroxyphenylethyl)-1H-benzo[d]imidazol hydrochloride]: the inhibition at 10 µM by setting is: under setting [3], -2.7%; under setting [4], -6%. In addition, the inhibition at 50 µM under setting [5] was -3% and the inhibition at 50 µM under setting [6] was -4.2%. Moreover, the inhibition at 100 µM reads like this: under setting [7], 6.4%; under setting [8], -4.6%.
Consider `Oc1ccc(CCn2ncc3ccccc32)cc1` [12αe, 1-(4-Hydroxyphenylethyl)-1H-indazole hydrochloride], for which the inhibition at 10 µM by setting is: under setting [3], 5%; under setting [4], 11%. For the same compound, the inhibition at 50 µM runs as follows: under setting [5], 18%; under setting [6], 29%. The inhibition at 100 µM under setting [7] was determined as 8% and the inhibition at 100 µM under setting [8] stood at 28%.
For `Oc1ccc(CCn2cncn2)cc1` [12βa, 1-(4-Hydroxyphenylethyl)-1H-1,2,4-triazole hydrochloride], the inhibition at 10 µM reads like this: under setting [3], 8%; under setting [4], 8%. In addition, the inhibition at 50 µM is, setting by setting: under setting [5], 10%; under setting [6], 14%. In addition, the inhibition at 100 µM by setting is: under setting [7], 12%; under setting [8], 8%.
Turning to `COc1ccc(CCCOc2ccc(CCn3cncn3)cc2)cc1` [Compound 6βf], the “Effect on amplitude of SOCE peak” value under setting [9] is on record as −10.0%. Moreover, the inhibition at 10 µM under setting [4] came to 13%. The inhibition at 50 µM under setting [6] was found to be 18%.
`COc1ccc(CCCOc2ccc(CCn3cccn3)cc2)cc1` [Compound 6βp]: the inhibition at 1 µM under setting [2] was -16%. This compound yielded a concentration for half-maximal inhibition (IC50) (Lymphocyte) of 25 µM.
Turning to `COc1ccc(CCOc2ccc(CCn3ccc(C(F)(F)F)n3)cc2)cc1` [Compound 6βs], the inhibition at 10 µM under setting [3] amounted to 13%. Also, the inhibition at 50 µM under setting [5] stood at 34% and the inhibition at 50 µM under setting [6] came to 6%. Further, the inhibition at 100 µM runs as follows: under setting [7], 64%; under setting [8], 10%.
Compound `COc1ccc(OC)c(-c2ccc(NC(=O)c3ccncc3F)cc2)c1` [Synta 66, reference compound] returned a half-inhibitory concentration (IC50) of 8.8 µM. In addition, for the setting “1 μM, PLP-B lymphocytes, % of inhibition (−) or activation, DMSO control 100%”, the “Effect on amplitude of SOCE peak” value is listed as 9.0%. The “Effect on amplitude of SOCE peak” value (10 μM, PLP-B lymphocytes, % of inhibition (−) or activation, DMSO control 100%) is 6.0%. Where the note is “50 μM, PLP-B lymphocytes, % of inhibition (−) or activation, DMSO control 100%”, the “Effect on amplitude of SOCE peak” value is on record as −74.0%. Moreover, under setting [9], the “Effect on amplitude of SOCE peak” value is given as −89.0%.
